These compounds were tested against Glycogen synthase kinase-3 beta (Homo sapiens, UniProt P49841) (assay: GSK3beta kinase inhibitor potency, dose response, biochemical, luminescence, cell-free homogeneous, retest (AID 434954)).
Sequence of Glycogen synthase kinase-3 beta (P49841 whole entry): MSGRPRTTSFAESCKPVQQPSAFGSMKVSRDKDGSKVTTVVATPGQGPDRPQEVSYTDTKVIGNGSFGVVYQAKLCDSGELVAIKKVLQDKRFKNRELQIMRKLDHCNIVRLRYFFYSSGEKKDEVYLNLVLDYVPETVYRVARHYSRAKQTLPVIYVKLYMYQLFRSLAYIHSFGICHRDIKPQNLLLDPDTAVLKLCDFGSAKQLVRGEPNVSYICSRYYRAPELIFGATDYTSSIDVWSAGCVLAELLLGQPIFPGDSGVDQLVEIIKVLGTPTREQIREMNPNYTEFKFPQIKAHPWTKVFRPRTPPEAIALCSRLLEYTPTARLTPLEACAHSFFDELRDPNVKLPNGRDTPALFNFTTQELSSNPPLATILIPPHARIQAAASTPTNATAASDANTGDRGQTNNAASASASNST

Compared with `Nc1nonc1-n1nnc(C(=O)NN=Cc2cc(Cl)ccc2O)c1CN1CCCCCC1` [SMR000620619], `Nc1nonc1-n1nnc(C(=O)NN=Cc2cccc(Cl)c2)c1CN1CCCCCC1` [MLS000950585] is 2.2-fold lower in EC50: 8.67 µM for the first, 4 µM for the second. The second is the more potent here.

`CC[n+]1c(/C=C/C=C/c2ccc(N(C)C)cc2)sc2ccccc21` [SMR000420206] and `CC[n+]1c(/C=C/N(C)c2ccccc2)sc2ccc(Cl)cc21` [N-[(E)-2-(5-chloro-3-ethyl-1,3-benzothiazol-3-ium-2-yl)ethenyl]-N-methylaniline;perchlorate] are within 1.5-fold of each other in EC50: 35.1 µM for the first, 49.8 µM for the second.

`CCOc1cccc(C(=O)Nc2cccc(-c3nc4ncccc4o3)c2C)c1` [3-ethoxy-N-[2-methyl-3-([1,3]oxazolo[4,5-b]pyridin-2-yl)phenyl]benzamide] and `COC(=O)c1cccc(Nc2nc(-c3ccncc3)nc3ccccc23)c1` [MLS001163930] cannot be ordered by EC50: greater than 300 µM for the first, greater than 300 µM for the second.

`CC1CCCN(S(=O)(=O)c2ccc(Br)s2)C1` (stereo unspecified) [SMR000021898] and `CC(C)C(=O)NC(=S)Nc1ccc(S(=O)(=O)N2CCCC2)cc1` [SMR000231524] cannot be ordered by EC50: greater than 300 µM for the first, greater than 300 µM for the second.

Going from `CCN1C(=O)[C@H]2[C@@H](c3ccc(-c4ccccc4)cc3)N[C@@](CC(C)C)(C(=O)OC)[C@H]2C1=O` [SMR000814381] to `COc1ccc(-c2nn(-c3ccccc3)cc2CN=O)cc1` [3-(4-methoxyphenyl)-1-phenyl-4-pyrazolecarboxaldehyde oxime], the EC50 falls from greater than 300 µM to 0.432 µM. The second is the more potent here.

First: O=C(CCSCCc1ccccn1)Nc1ccc(Br)cn1 [N-(5-bromopyridin-2-yl)-3-(2-pyridin-2-ylethylsulfanyl)propanamide]
Second: O=C(O)c1ccccc1Nc1ccnc(Cl)n1 [2-[(2-chloro-4-pyrimidinyl)amino]benzoic acid]
The EC50 of the first is lower: 39.3 µM for the first, greater than 300 µM for the second.

`O=C(CSc1nnc(-c2ccco2)n1Cc1ccco1)N1CCOCC1` [2-(5-Furan-2-yl-4-furan-2-ylmethyl-4H-[1,2,4]triazol-3-ylsulfanyl)-1-morpholin-4-yl-ethanone] and `CC1(C)Oc2ccc(C(=O)N3CCOCC3)cc2N(CC(=O)N2CCOCC2)C1=O` cannot be ordered by EC50: greater than 300 µM for the first, greater than 300 µM for the second.

`COc1cc(OC)c(OC)cc1CNCC1COc2ccccc2O1` (stereo unspecified) [SMR000516658] and `Oc1ccc(CNCC2COc3ccccc3O2)cc1` (stereo unspecified) [SMR000145120] cannot be ordered by EC50: greater than 300 µM for the first, greater than 300 µM for the second.

`CCN1CCN(C(=O)c2ccc3c(c2)N(Cc2ccc(F)cc2)C(=O)c2ccccc2[S+]3[O-])CC1` (stereo unspecified) [MLS000117749] and `O=C(Nc1ccc(N2CCN(Cc3ccccc3)CC2)cc1)c1ccccc1[N+](=O)[O-]` [N-[4-(4-benzyl-1-piperazinyl)phenyl]-2-nitrobenzamide] cannot be ordered by EC50: greater than 300 µM for the first, greater than 300 µM for the second.

Compared with `CC(C)n1cnc2c(Nc3cccc(Cl)c3)nc(NCCCO)nc21`, `Nc1nc(NCCCN2CCOCC2)nc(Nc2cccc(Cl)c2)c1[N+](=O)[O-]` [MLS000769815] is lower in EC50: greater than 300 µM for the first, 4.25 µM for the second.

Compared with `CCN(Cc1ccccc1)S(=O)(=O)c1ccc2c(c1)NC(=O)CC(=O)N2` [N-ethyl-2,4-dioxo-N-(phenylmethyl)-1,5-dihydro-1,5-benzodiazepine-7-sulfonamide], `O=C1N=C(NS(=O)(=O)Cc2ccccc2)S/C1=C/c1ccc2c(c1)OCO2` [N-[5-[1-Benzo[1,3]dioxol-5-yl-meth-(E)-ylidene]-4-oxo-thiazolidin-(2E)-ylidene]-C-phenyl-methanesulfon amide] is 3.2-fold lower in EC50: 59.6 µM for the first, 18.8 µM for the second.

`COc1ccc(-c2nn(-c3ccccc3)cc2C=NN=C(N)N)cc1OC` [SMR000261891] and `Cc1ccc(-c2nn(-c3ccccc3)cc2C=NNC(=O)c2ccc(Br)o2)cc1` cannot be ordered by EC50: greater than 300 µM for the first, greater than 300 µM for the second.

`Fc1ccc(CSc2nnc(-c3cccnc3)o2)cc1` [2-[(4-fluorophenyl)methylthio]-5-(3-pyridinyl)-1,3,4-oxadiazole] and `Nc1nnc(CC(=O)NN=Cc2ccccc2OCc2ccc(F)cc2)s1` [SMR000420435] cannot be ordered by EC50: greater than 300 µM for the first, greater than 300 µM for the second.

First: CCC(C)Nc1nc(N)c([N+](=O)[O-])c(NCc2ccccc2)n1 (stereo unspecified)
Second: CCN(CC)CCCNc1nc(N)c([N+](=O)[O-])c(NCCO)n1 [SMR000436737]
The EC50 of the first is lower: 9.62 µM for the first, greater than 300 µM for the second. The first is the more potent here.

`Cn1ncc(Br)c1C(=O)Nc1cccc(C(F)(F)F)c1` [MLS000711234] and `COCCOc1ccc(C(F)(F)F)cc1NC(=O)COC(=O)c1cc[n+]([O-])cc1` [[2-[2-(2-methoxyethoxy)-5-(trifluoromethyl)anilino]-2-oxoethyl] 1-oxidopyridin-1-ium-4-carboxylate] cannot be ordered by EC50: greater than 300 µM for the first, greater than 300 µM for the second.

Compared with `C=CCNC(=O)c1ccc(OC)cc1` [4-methoxy-N-prop-2-enylbenzamide], `COc1ccc(C(=O)c2sc(Nc3ccccc3)nc2C)cc1` [MLS001181792] is lower in EC50: greater than 300 µM for the first, 32.1 µM for the second. The second is the more potent here.

Going from `Nc1nc(NCC2CCCO2)nc(Nc2ccc(Cl)cc2)c1[N+](=O)[O-]` (stereo unspecified) [N'-(4-Chloro-phenyl)-5-nitro-N-(tetrahydro-furan-2-ylmethyl)-pyrimidine-2,4,6-triamine] to `Cc1ccc(Nc2nc(NCC3CCCO3)nc(N)c2[N+](=O)[O-])cc1` (stereo unspecified), the EC50 rises from 2.29 µM to 4.95 µM (2.2-fold). The first is the more potent here.

`COCc1c(C(=O)Nc2ccc(Cl)cc2F)oc2ccccc12` [N-(4-chloro-2-fluorophenyl)-3-(methoxymethyl)-2-benzofurancarboxamide] and `CC(CC(=O)Nc1ccc(F)c([N+](=O)[O-])c1)c1ccccc1` (stereo unspecified) cannot be ordered by EC50: greater than 300 µM for the first, greater than 300 µM for the second.

`COc1cc(NC2=CC(=O)CC(C)(C)C2)cc(OC)c1OC` [5,5-dimethyl-3-(3,4,5-trimethoxyanilino)-1-cyclohex-2-enone] and `Cc1ccc(C2c3c(C)noc3N=C3CC(C)(C)CC(=O)C32)cc1` (stereo unspecified) [MLS000568466] cannot be ordered by EC50: greater than 300 µM for the first, greater than 300 µM for the second.

`O=C(NCCc1nnc2ccc(NCC3CCCO3)nn12)c1ccccc1` (stereo unspecified) [N-(2-{6-[(tetrahydrofuran-2-ylmethyl)amino][1,2,4]triazolo[4,3-b]pyridazin-3-yl}ethyl)benzamide] and `Cc1ccccc1CSc1ccc2nnc(-c3ccccn3)n2n1` [SMR000323599] cannot be ordered by EC50: greater than 300 µM for the first, greater than 300 µM for the second.

`COc1ccc(C=C2SC(Nc3ccccc3)=NC2=O)cc1` [5-(4-Methoxy-benzylidene)-2-phenylimino-thiazolidin-4-one] and `COc1ccc(Nc2nc(-c3ccncc3)nc3ccccc23)cc1` [N-(4-methoxyphenyl)-2-pyridin-4-ylquinazolin-4-amine] cannot be ordered by EC50: greater than 300 µM for the first, greater than 300 µM for the second.

Going from `CC(C)=CCc1c(O)ccc2c1OC(c1ccc(O)c(O)c1)CC2=O` (stereo unspecified) [2-(3,4-dihydroxyphenyl)-7-hydroxy-8-(3-methylbut-2-enyl)-2,3-dihydrochromen-4-one] to `COc1ccc(C(=O)c2coc3ccc(O)c(CN4CCCC4)c23)cc1` [[5-hydroxy-4-(1-pyrrolidinylmethyl)-3-benzofuranyl]-(4-methoxyphenyl)methanone], the EC50 rises from 4.58 µM to greater than 300 µM. The first is the more potent here.

`O=C(Cc1ccccc1)Nc1ccc(N2CCOCC2)cc1` [MLS000707957] and `O=C1Nc2cc(C(=O)NCCN3CCCCCC3)ccc2S/C1=C\c1ccccc1` [SMR000635247] cannot be ordered by EC50: greater than 300 µM for the first, greater than 300 µM for the second.

Compared with `CN1CCN(C(=O)CCS(=O)(=O)c2cc3c(cc2Cl)NC(=O)CO3)CC1` [SMR000627499], `COc1cccc(/C=C2/Sc3ccc(C(=O)NCCN4CCCC4)cc3NC2=O)c1` [(2E)-2-[(3-methoxyphenyl)methylidene]-3-oxo-N-(2-pyrrolidin-1-ylethyl)-4H-1,4-benzothiazine-6-carboxamide] is lower in EC50: greater than 300 µM for the first, 2.81 µM for the second.

`COc1ccc(-c2cc(-c3ccco3)nc(O)c2C#N)cc1` [6-(furan-2-yl)-4-(4-methoxyphenyl)-2-oxidanylidene-1H-pyridine-3-carbonitrile] and `Nc1ccc2oc(-c3ccccc3Cl)cc(O)c-2c1=O` [6-amino-2-(2-chlorophenyl)-5-hydroxy-1-benzopyran-4-one] cannot be ordered by EC50: greater than 300 µM for the first, greater than 300 µM for the second.

`CC(C)CCNc1nc(N)c([N+](=O)[O-])c(NC2CCCCC2)n1` and `Nc1nc(NCc2ccco2)nc(NC2CCCCC2)c1[N+](=O)[O-]` [MLS000769818] cannot be ordered by EC50: greater than 300 µM for the first, greater than 300 µM for the second.

`FC(F)(F)c1ccc(CSc2nccn2-c2ccccc2)cc1` and `Fc1ccc(Nc2nc(-c3ccncc3)nc3ccccc23)cc1` [(4-Fluoro-phenyl)-(2-pyridin-4-yl-quinazolin-4-yl)-amine] cannot be ordered by EC50: greater than 300 µM for the first, greater than 300 µM for the second.

First: NS(=O)(=O)c1cc(C(=O)NNC2=c3ccccc3=NC2=O)ccc1Cl [2-chloro-5-[[(2-oxoindol-3-yl)amino]carbamoyl]benzenesulfonamide]
Second: Cc1ccc(C(=O)Nc2ccc(S(=O)(=O)NCc3ccco3)cc2)cc1 [SMR000123393]
The EC50 of the first is lower: 43.9 µM for the first, greater than 300 µM for the second.

`COCCn1c(SCC(=O)NC(=O)NCc2ccccc2)nc2ccccc21` [MLS000053169] and `CCc1nnc(NC(=O)c2cc(-c3ccccc3)nn2-c2ccccc2)s1` [SMR000152662] cannot be ordered by EC50: greater than 300 µM for the first, greater than 300 µM for the second.

`CCCCC(=O)Nc1ncc(S(=O)(=O)c2ccc([N+](=O)[O-])cc2)s1` [N-[5-(4-nitrophenyl)sulfonyl-2-thiazolyl]pentanamide] and `Cc1nn(C)c(C)c1S(=O)(=O)N(CC(=O)Nc1nccs1)c1ccc(C(C)C)cc1` [MLS000118397] cannot be ordered by EC50: greater than 300 µM for the first, greater than 300 µM for the second.

First: CC1=C(C#N)C(=O)NC(=O)C1=NNc1cccc(C)c1 [(5Z)-4-methyl-5-[(3-methylphenyl)hydrazinylidene]-2,6-bis(oxidanylidene)pyridine-3-carbonitrile]
Second: Cc1ccc(NC(=O)NCCCN2CCCC2=O)cc1C [SMR000677961]
The EC50 of the first is lower: 0.775 µM for the first, greater than 300 µM for the second.

`COc1cccc2cc(C(=O)CS(=O)(=O)c3ccc(C(C)(C)C)cc3)c(=O)oc12` [3-[2-(4-tert-butylphenyl)sulfonyl-1-oxoethyl]-8-methoxy-1-benzopyran-2-one] and `CC1=C(C(=O)Nc2ccccc2F)C(c2cccs2)C2C(=O)CCCC2=N1` (stereo unspecified) cannot be ordered by EC50: greater than 300 µM for the first, greater than 300 µM for the second.

Compared with `CCCc1c(C(=O)NN=Cc2ccncc2)nnn1-c1nonc1N`, `CCCN(CCC)Cc1c(C(=O)NN=Cc2ccsc2)nnn1-c1nonc1N` [SMR000620321] is lower in EC50: greater than 300 µM for the first, 4.13 µM for the second.

Going from `N#Cc1c2n(c3c(=O)[nH]cnc13)CCCC2` to `CCOc1ccccc1C=NNC(=O)c1nnn(-c2nonc2N)c1CN1CCC(C)CC1` [SMR000620330], the EC50 rises from 56.4 µM to greater than 300 µM. The first is the more potent here.

First: CCOC(=O)c1nnn(-c2nonc2N)c1CSc1nnc(N)s1 [MLS000624994]
Second: Cc1nn(-c2ccccc2)cc1CN=O
The EC50 of the first is higher: greater than 300 µM for the first, 71.2 µM for the second. The second is the more potent here.

In the case of `Nc1ncnc(NC2CCS(=O)(=O)C2)c1[N+](=O)[O-]` (stereo unspecified) [4-N-(1,1-dioxothiolan-3-yl)-5-nitropyrimidine-4,6-diamine], the EC50 is reported as greater than 300 µM.
